From patent publication US7030245B2, “Antidepressant azahetorocyclylmethyl derivatives of 7,8-dihydro-6H-5-oxa-1-aza-phenathrene” (Wyeth, priority 2001, dated 2006)
Structures can show the parent of a compound that is named as a salt.

How the values were obtained:
serotonin transporter = biological target: T1, serotonin transporter (Rattus norvegicus, UniProt P31652); experiment: 3H-paroxetine displacement, serotonin transporter affinity; type: binding
T1 construct: displace ^3H-paroxetine from male rat frontal cortical membranes; from tissue; host or cells: male rat frontal cortex membranes
T1 sequence (P31652 whole entry): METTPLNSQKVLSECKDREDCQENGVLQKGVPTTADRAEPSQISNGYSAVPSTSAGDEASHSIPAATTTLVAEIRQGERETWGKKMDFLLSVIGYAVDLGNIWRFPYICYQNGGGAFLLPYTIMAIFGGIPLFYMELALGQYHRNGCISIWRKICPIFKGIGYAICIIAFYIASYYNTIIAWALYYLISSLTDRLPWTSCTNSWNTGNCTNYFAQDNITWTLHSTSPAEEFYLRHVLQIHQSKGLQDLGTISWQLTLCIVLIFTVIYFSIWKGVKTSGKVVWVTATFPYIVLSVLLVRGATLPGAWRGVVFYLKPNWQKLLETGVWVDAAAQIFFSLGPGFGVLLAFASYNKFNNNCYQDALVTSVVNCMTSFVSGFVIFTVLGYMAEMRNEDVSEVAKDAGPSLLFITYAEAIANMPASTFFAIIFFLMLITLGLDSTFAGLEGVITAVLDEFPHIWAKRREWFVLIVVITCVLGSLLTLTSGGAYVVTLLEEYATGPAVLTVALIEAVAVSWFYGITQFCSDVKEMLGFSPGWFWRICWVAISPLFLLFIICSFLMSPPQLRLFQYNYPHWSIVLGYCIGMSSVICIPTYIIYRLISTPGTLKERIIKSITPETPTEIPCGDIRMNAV

human 5-HT1A receptors = biological target: T2, human 5-HT1A receptors (Homo sapiens, UniProt P08908); experiment: [3H] 8-OHDPAT displacement, 5-HT1A receptor affinity; type: binding; conditions: displacement of [3H] 8-OHDPAT; CHO cells stably transfected with human 5-HT1A receptors
T2 construct: expressed in transfected cells; host or cells: CHO cells, stably transfected
T2 sequence (P08908 1-422): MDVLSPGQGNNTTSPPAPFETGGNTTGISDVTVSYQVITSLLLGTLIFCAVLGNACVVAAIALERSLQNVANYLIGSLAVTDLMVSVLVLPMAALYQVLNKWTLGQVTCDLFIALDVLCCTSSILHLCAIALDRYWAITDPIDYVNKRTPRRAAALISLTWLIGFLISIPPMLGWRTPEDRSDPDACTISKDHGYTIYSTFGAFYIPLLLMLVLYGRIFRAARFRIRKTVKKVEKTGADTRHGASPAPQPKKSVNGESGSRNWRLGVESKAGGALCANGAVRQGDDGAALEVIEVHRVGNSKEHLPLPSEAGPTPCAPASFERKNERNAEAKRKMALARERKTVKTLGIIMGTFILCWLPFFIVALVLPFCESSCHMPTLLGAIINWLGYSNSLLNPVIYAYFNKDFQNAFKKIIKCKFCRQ
From the text: High affinity for the serotonin 5-HT1A receptor was established by testing the claimed compound's ability to displace [^3H] 8-OHDPAT (dipropylaminotetralin) from the 5-HT1A serotonin receptor following a modification of the procedure of Hall et al., J. Neurochem. 44, 1685 (1985) which utilizes CHO cells stably transfected with human 5-HT1A receptors.

[1] = biological target: T3, cloned human 5-HT1A receptors (Homo sapiens, UniProt P08908); experiment: 35S-GTPγS binding assay, 5-HT1A function; type: biochemical; conditions: for Emax: maximum stimulatory effect on 35S-GTPγS binding, value in parentheses; for EC50: 35S-GTPγS binding to membranes containing cloned human 5-HT1A receptors
T3 construct: expressed in transfected cells
T3 sequence (P08908 1-422): T2 sequence (P08908 1-422)
Procedure: Agonist activity at 5-HT1A receptors was established by using a ^35S-GTPγS binding assay similar to that used by Lazareno and Birdsall (Br. J. Pharmacol. 109: 1120, 1993), in which the test compound's ability to affect the binding of ^35S-GTPγS to membranes containing cloned human 5-HT1A receptors was determined. Agonists produce an increase in binding whereas antagonists produce no increase but rather reverse the effects of the standard agonist 8-OHDPAT. The test compound's maximum stimulatory effect is represented as the Emax, while its potency is defined by the EC50.

SMILES	melting point [°C]	Ki (serotonin transporter) [µM]	Ki (human 5-HT1A receptors) [µM]	Emax [1] [%]	EC50 [1] [µM]
Fc1ccc2[nH]cc(C3=CCN(C[C@@H]4CCc5ccc6ncccc6c5O4)CC3)c2c1 (as salt: oxalate) [Example 2, (6S)-6-[4-(5-Fluoro-1H-indol-3-yl)-3,6-dihydro-2H-pyridin-1-ylmethyl]-7,8-dihydro-6H-5-oxa-1aza-phenanthrene]	210				
Fc1ccc2[nH]cc(C3=CCN(C[C@@H]4CCc5ccc6ncccc6c5O4)CC3)c2c1 [Example 2, (6S)-6-[4-(5-Fluoro-1H-indol-3-yl)-3,6-dihydro-2H-pyridin-1-ylmethyl]-7,8-dihydro-6H-5-oxa-1aza-phenanthrene]		0.00596	0.0886	5	
Fc1ccc2[nH]cc(C3=CCN(CC4CCc5ccc6ncccc6c5O4)CC3)c2c1 (centres unmarked) [Example 1, 6-[4-(5-Fluoro-1H-indol-3-yl)-3,6-dihydro-2H-pyridin-1-ylmethyl]-7,8-dihydro-6H-5-oxa-1aza-phenanthrene]		0.008	0.0609	49	0.103
Fc1ccc2[nH]cc(C3=CCN(C[C@H]4CCc5ccc6ncccc6c5O4)CC3)c2c1 (as salt: fumarate) [Example 3, (6R)-6-[4-(5-Fluoro-1H-indol-3-yl)-3,6-dihydro-2H-pyridin-1-ylmethyl]-7,8-dihydro-6H-5-oxa-1aza-phenanthrene]	210				
Fc1ccc2[nH]cc(C3=CCN(CC4CCc5ccc6ncccc6c5O4)CC3)c2c1 (centres unmarked) (as salt: oxalate) [Example 1, 6-[4-(5-Fluoro-1H-indol-3-yl)-3,6-dihydro-2H-pyridin-1-ylmethyl]-7,8-dihydro-6H-5-oxa-1aza-phenanthrene]	148				
Fc1ccc2[nH]cc(C3=CCN(C[C@H]4CCc5ccc6ncccc6c5O4)CC3)c2c1 [Example 3, (6R)-6-[4-(5-Fluoro-1H-indol-3-yl)-3,6-dihydro-2H-pyridin-1-ylmethyl]-7,8-dihydro-6H-5-oxa-1aza-phenanthrene]		0.006	0.0823	52	0.0789
